The source of these data is patent publication US11040028B2, “Penicinotam derivative, preparation method and use thereof” (OCEAN UNIVERSITY OF CHINA, priority 2017, dated 2021).

In general, IC50 refers to the concentration that inhibits the measured activity by half.

Holding throughout (format): cell-based
In assay [1] the test system is human embryonic lung fibroblast IMR-90. As to the kind of experiment: Anti-fibrosis activity test: inhibition of proliferation of human embryonic lung fibroblast IMR-90 (CCK-8). The following applies: human embryonic lung fibroblast IMR-90, CCK-8, 48 hours. An outline of the steps:
(§1)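 IC50 values derive from CCK-8 absorbance (450 nm, 2 h reagent incubation) measured after a 48 h exposure to test compounds. Before dosing, cells plated at 2×10^4 cells/mL had attached for 24 h under 5% CO2 at 37° C; triplicate wells per concentration.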

Assay [2] has as its system human dermal fibroblasts CCC-ESF-1. As to the kind of experiment: Anti-fibrosis activity test: inhibition of proliferation of human dermal fibroblasts CCC-ESF-1 (CCK-8). The following applies: Fibroblast; human dermal fibroblasts CCC-ESF-1, CCK-8, 48 hours. Summed up: as §1
For assay [3], the system named is human hepatic stellate cells LX-2. Put plainly: Anti-fibrosis activity test: inhibition of proliferation of human hepatic stellate cells LX-2 (CCK-8). Particulars: Homo sapiens, 48 h, human hepatic stellate cells LX-2, CCK-8, 48 hours. Summed up:
as §1

In assay [4] the test system is mouse macrophages (RAW264.7). Put plainly: Lipopolysaccharide-induced NO secretion in macrophages (Griess). The following applies: Mus musculus, RAW264.7, 24 h, RAW264.7, LPS 1 μg/ml, a/b isomers given as first/second symbol, read-out: IC50 (μM), inhibition of lipopolysaccharide-induced NO secretion in macrophages. Summed up: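 Percent inhibition of NO release was measured by Griess absorbance at 548 nm in supernatants. Cells were mouse RAW264.7 macrophages in 10% FBS DMEM, treated with graded compound concentrations and activated by LPS (1 μg/ml) for 24 h.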
(In general: Griess reagent forms a coloured azo dye with nitrite.)

Assay [5] has as its system cardiac fibroblast RAT-iCell-C002. As to the kind of experiment: Anti-fibrosis activity test: inhibition of proliferation of cardiac fibroblast RAT-iCell-C002 (CCK-8). The following applies: Cardiac fibroblast, 48 h, cardiac fibroblast RAT-iCell-C002, CCK-8, 48 hours. Summed up:
as §1

For the next assay, the system named is BHK-21 cells. As to the kind of experiment: Anti-fibrosis activity test: inhibition of BHK-21 cell proliferation (CCK-8). The following applies: Mesocricetus auratus, BHK-21, 48 h, CCK-8, 48 hours after administration. An outline of the steps:
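Proliferation of BHK-21 cells is measured by CCK-8 at 450 nm following 48 h compound exposure at several concentrations. Inhibition is expressed relative to blank control and IC50 is computed from it.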

In a further assay the test system is NF-κB. As to the kind of experiment: Immunological activity test: inhibition of NF-κB activity. The following applies: initial concentration of 30 μM; a/b isomers given as first/second symbol; read-out: IC50 (μM), inhibitory activity against NF-κB. Summed up: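 Parthenolide as positive control; starting test concentration 30 μM; inhibition of NF-κB activity analysed further to yield IC50.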

Assay [6] deals with human lung fibroblasts HFL1. Put plainly: Anti-fibrosis activity test: inhibition of proliferation of human lung fibroblasts HFL1 (CCK-8). Particulars: Homo sapiens, HFL1, 48 h, human lung fibroblasts HFL1, CCK-8, 48 hours. Summed up: as §1
In assay [7] the test system is human fibrosarcoma cells HT-1080. As to the kind of experiment: Anti-fibrosis activity test: inhibition of proliferation of human fibrosarcoma cells HT-1080 (CCK-8). The following applies: Homo sapiens, HT-1080, 48 h, human fibrosarcoma cells HT-1080, CCK-8, 48 hours. Summed up: as §1

As for `Cn1c2c(c(=O)c3cc(F)ccc31)C(=O)n1cccc1-2` [Compound 157a, 7-Fluoro-4-methyl-9H-pyrrolizino[1,2-b]quinoline-9,10(4H)-dione], the IC50 in assay [1] was in the range of 0.05 to 5 mM; in [2] it was 0.05 to 5 mM; in assay [3], 0.05 to 5 mM; in [4] it was 0.1 to 1 µM; in assay [5], 0.05 to 5 mM; in the assay on BHK-21 cells it was 5 to 20 mM. The values for the half-inhibitory concentration (IC50) (with NF-κB; in [6]; in assay [7]) were 10 to 50 µM, 0.05 to 5 mM and 0.05 to 5 mM, respectively.

Turning to `COc1c2c(nc3ccc(F)cc13)-c1cccn1C2=O` [Compound 157b, 7-fluoro-9-methoxy-10H-pyrrolizino[1,2-b]quinolin-10-one], the IC50 in assay [1] is 0.05 to 5 mM; in assay [2] it was 0.05 to 5 mM; in assay [3] it was 0.05 to 5 mM; in assay [4] it was 1 to 10 µM; in [5], 0.05 to 5 mM; with BHK-21 cells, 0.05 to 5 mM. Also, the IC50 with NF-κB was in the range of 0.1 to 1 µM; in [6] it was 0.05 to 5 mM; in [7] it was 0.05 to 5 mM.

Take `N#Cc1ccc2[nH]c3c(c(=O)c2c1)C(=O)n1cccc1-3` [Compound 222a, 9,10-Dioxo-4,10-dihydro-9H-pyrrolizino[1,2-b]quinoline-7-carbonitrile]: the IC50 was in the range of 0.05 to 5 mM in assay [1]; 0.05 to 5 mM in assay [2]; 0.05 to 5 mM in assay [3]; 1 to 10 µM in assay [4]; 0.05 to 5 mM in [5]; 0.05 to 5 mM with BHK-21 cells. The IC50 in the assay on NF-κB was 1 to 10 µM; in assay [6], 0.05 to 5 mM; in [7], 0.05 to 5 mM.

Turning to `N#Cc1ccc2nc3c(c(O)c2c1)C(=O)n1cccc1-3` [Compound 222b, 9-hydroxy-10-oxo-10H-pyrrolizino[1,2-b]quinoline-7-carbonitrile], the IC50 in assay [1] was in the range of 0.05 to 5 mM; in assay [2] it was 0.05 to 5 mM; in assay [3], 0.05 to 5 mM; in assay [4], 1 to 10 µM; in assay [5], 0.05 to 5 mM; in the assay with BHK-21 cells, 0.05 to 5 mM. Also, the values for the IC50 (in the assay on NF-κB; in [6]; in [7]) were 1 to 10 µM, 0.05 to 5 mM and 0.05 to 5 mM, respectively.

Take `O=C1c2c([nH]c3ccc(Br)cc3c2=O)-c2cccn21` [Compound 246a, 7-Bromo-9H-pyrrolizino[1,2-b]quinoline-9,10(4H)-dione]: the IC50 in [1] lay within 0.05 to 5 mM; in assay [2] it was 0.05 to 5 mM; in assay [3] it was 0.05 to 5 mM; in [4] it was 1 to 10 µM; in [5], 0.05 to 5 mM; in the assay on BHK-21 cells it was 5 to 20 mM. Also, the IC50 in the assay on NF-κB was in the range of 1 to 10 µM; in assay [6], 0.05 to 5 mM; in [7] it was 0.05 to 5 mM.

As to `O=C1c2c(nc3ccc(Br)cc3c2O)-c2cccn21` [Compound 246b, 7-bromo-9-hydroxy-10H-pyrrolizino[1,2-b]quinolin-10-one], the IC50 in assay [1] was in the range of 0.05 to 5 mM; in assay [2], 0.05 to 5 mM; in [3], 0.05 to 5 mM; in assay [4] it was 1 to 10 µM; in [5], 0.05 to 5 mM; in the assay with BHK-21 cells, 0.05 to 5 mM. Besides, the IC50 lay in the range of 1 to 10 µM with NF-κB, 0.05 to 5 mM in assay [6] and 0.05 to 5 mM in [7].

On to `O=C(O)Cn1c2c(c(=O)c3cc(C(F)(F)F)ccc31)C(=O)n1cccc1-2` [Compound 279a, 2-(9,10-dioxo-7-(trifluoromethyl)-9H-pyrrolizino[1,2-b]quinolin-4(10H)-yl)acetic acid], for which the IC50 in [1] is 0.05 to 5 mM; in assay [2], 0.05 to 5 mM; in [3] it was 0.05 to 5 mM; in [4] it was 1 to 10 µM; in [5] it was 0.05 to 5 mM; with BHK-21 cells, 0.05 to 5 mM. Further, the IC50 is 1 to 10 µM in the assay on NF-κB, 0.05 to 5 mM in assay [6] and 0.05 to 5 mM in [7].
